How the values were obtained:
Type in all cases: cell-based
Calu-1 cells = experiment: Anti-proliferation (viability) of NSCLC Calu-1 cells, 3 days (Table 7, FIG. 2B); conditions: Homo sapiens, 72 h; Calu-1 cells, 3 days, 10-point serial dilution; read-out: GI IC50 in Calu-1
Procedure, shortened: (§1)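 Viability is read after treatment with compounds titrated over ten serial dilution points, with exposure lasting three days for the NSCLC line and six days for the breast cancer line.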

MCF7 cells = experiment: Anti-proliferation (viability) of MCF7 cells (Table 7, FIG. 2B); conditions: Homo sapiens, MCF7, MCF7 cells, 3-6 days, 10-point serial dilution; read-out: GI IC50 in MCF-7
CDK4 = CDK4 (Homo sapiens, UniProt P11802+Q16531); experiment: CDK4 percentage degradation in Calu-1 cells (Table 6); parameters: Cells that express cyclin D1-3 and CDK4/6 proteins were treated with heterobifunctional compounds; endogenous in cells; host or cells: Calu-1; conditions: 16 hours; for inhibition at 0.04 µM: 40 nM; for inhibition at 0.2 µM: 200 nM
Sequence of CDK4 (P11802 2-303 limits assumed): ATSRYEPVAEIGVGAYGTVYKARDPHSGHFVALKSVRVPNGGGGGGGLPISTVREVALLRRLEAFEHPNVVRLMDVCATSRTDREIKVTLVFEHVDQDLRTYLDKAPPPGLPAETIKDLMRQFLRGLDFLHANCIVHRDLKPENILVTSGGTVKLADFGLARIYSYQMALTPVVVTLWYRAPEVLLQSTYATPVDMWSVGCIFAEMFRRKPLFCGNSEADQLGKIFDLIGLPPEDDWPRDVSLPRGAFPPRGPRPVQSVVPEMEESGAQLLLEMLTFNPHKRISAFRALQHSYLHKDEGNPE
Sequence of CDK4 (P24385 whole entry partner): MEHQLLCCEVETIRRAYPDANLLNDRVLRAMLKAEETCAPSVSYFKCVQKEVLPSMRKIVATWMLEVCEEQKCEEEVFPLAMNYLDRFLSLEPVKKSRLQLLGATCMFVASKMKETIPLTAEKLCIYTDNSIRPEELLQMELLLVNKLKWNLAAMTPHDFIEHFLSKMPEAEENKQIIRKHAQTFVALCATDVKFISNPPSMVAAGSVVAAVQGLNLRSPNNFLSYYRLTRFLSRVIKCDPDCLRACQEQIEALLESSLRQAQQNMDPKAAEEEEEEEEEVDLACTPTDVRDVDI
Sequence of CDK4 (Q16531 2-1140 limits assumed): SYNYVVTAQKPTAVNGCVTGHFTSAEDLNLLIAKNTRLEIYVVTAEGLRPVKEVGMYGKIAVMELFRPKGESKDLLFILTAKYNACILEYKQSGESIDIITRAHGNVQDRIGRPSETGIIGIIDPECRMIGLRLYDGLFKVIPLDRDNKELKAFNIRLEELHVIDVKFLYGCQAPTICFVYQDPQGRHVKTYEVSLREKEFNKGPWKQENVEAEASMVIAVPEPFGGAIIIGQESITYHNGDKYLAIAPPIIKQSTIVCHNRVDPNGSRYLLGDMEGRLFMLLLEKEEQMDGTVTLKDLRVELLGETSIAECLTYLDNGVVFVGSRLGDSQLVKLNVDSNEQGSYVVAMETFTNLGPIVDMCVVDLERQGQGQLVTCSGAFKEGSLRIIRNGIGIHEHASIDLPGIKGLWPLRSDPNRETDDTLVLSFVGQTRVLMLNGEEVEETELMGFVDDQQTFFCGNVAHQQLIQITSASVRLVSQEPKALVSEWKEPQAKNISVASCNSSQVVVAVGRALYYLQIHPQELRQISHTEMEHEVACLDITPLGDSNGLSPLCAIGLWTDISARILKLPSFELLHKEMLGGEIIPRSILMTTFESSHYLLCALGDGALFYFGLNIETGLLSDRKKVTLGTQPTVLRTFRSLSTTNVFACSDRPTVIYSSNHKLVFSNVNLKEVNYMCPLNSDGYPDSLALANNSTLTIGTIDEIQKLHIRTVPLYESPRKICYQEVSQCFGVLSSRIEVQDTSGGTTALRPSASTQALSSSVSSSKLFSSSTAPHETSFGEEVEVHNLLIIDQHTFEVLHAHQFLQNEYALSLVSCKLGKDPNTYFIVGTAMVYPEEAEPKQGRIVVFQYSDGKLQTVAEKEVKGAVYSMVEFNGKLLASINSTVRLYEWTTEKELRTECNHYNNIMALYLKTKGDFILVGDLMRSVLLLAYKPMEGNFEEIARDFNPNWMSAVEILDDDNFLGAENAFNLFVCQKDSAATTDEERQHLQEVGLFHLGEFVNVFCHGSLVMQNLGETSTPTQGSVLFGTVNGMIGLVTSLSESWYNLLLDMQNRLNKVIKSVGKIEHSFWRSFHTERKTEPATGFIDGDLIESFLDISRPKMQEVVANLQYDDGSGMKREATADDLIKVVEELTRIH
Procedure, shortened: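 Calu-1 cells exposed to heterobifunctional compounds at 40 nM or 200 nM for 16 h. Cyclin D1 and CDK4 levels measured by Western blot of RIPA lysates (BCA-normalised loading), bands quantified by densitometry and expressed as percentage degradation.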

T47D cells = experiment: Anti-proliferation (viability) of ER+ breast cancer T47D cells, 6 days (Table 7, FIG. 2B); conditions: Homo sapiens, 144 h; T47D cells, 6 days, 10-point serial dilution; read-out: GI IC50 in T47D
Procedure, shortened: as §1

IC50 (Calu-1 cells) [nM]	IC50 (MCF7 cells) [nM]	inhibition at 0.04 µM (CDK4) [%]	inhibition at 0.2 µM (CDK4) [%]	IC50 (T47D cells) [nM]	SMILES
10 to 50	50 to 100	50 to 80	50 to 80	50 to 100	CNc1ccc(C(=O)Nc2ccc(N(C)C)nn2)c(NC[C@H]2CC[C@H](NC(=O)CN3CCN(c4ccc(Nc5ncc6c(C)c(C(C)=O)c(=O)n(C7CCCC7)c6n5)nc4)CC3)CC2)n1 [CPD-73]
≤ 10	< 50	50 to 80	50 to 80	≤ 50	CNc1ccc(C(=O)Nc2ccc(N(C)C)nn2)c(NC2CC(CNC(=O)CN3CCN(c4ccc(Nc5ncc6c(C)c(C(C)=O)c(=O)n(C7CCCC7)c6n5)nc4)CC3)C2)n1 (centres unmarked) [CPD-79, 2-((3-((2-(4-(6-((6-Acetyl-8-cyclopentyl-5-methyl-7-oxo-7,8-dihydropyrido[2,3-d]pyrimidin-2-yl)amino)pyridin-3-yl)piperazin-1-yl)acetamido)methyl)cyclobutyl)amino)-N-(6-(dimethylamino)pyridazin-3-yl)-6-(methylamino)nicotinamide]
10 to 50	> 100	< 30	< 30	50 to 100	CNc1ccc(C(=O)Nc2ccc(N(C)C)nn2)c(NC2CC3(C2)CC(OCC(=O)N2CCN(c4ccc(Nc5ncc6c(C)c(C(C)=O)c(=O)n(C7CCCC7)c6n5)nc4)CC2)C3)n1 (centres unmarked) [CPD-84, 2-((6-(2-(4-(6-((6-Acetyl-8-cyclopentyl-5-methyl-7-oxo-7,8-dihydropyrido[2,3-d]pyrimidin-2-yl)amino)pyridin-3-yl)piperazin-1-yl)-2-oxoethoxy)spiro[3.3]heptan-2-yl)amino)-N-(6-(dimethylamino)pyridazin-3-yl)-6-(methylamino)nicotinamide]
≤ 10	< 50	50 to 80	> 80	50 to 100	CNc1ccc(C(=O)Nc2ccc(N(C)C)nn2)c(NC2CC(CC(=O)NCCN3CCN(c4ccc(Nc5ncc6c(C)c(C(C)=O)c(=O)n(C7CCCC7)c6n5)nc4)CC3)C2)n1 (centres unmarked) [CPD-101, 2-((3-(2-((2-(4-(6-((6-Acetyl-8-cyclopentyl-5-methyl-7-oxo-7,8-dihydropyrido[2,3-d]pyrimidin-2-yl)amino)pyridin-3-yl)piperazin-1-yl)ethyl)amino)-2-oxoethyl)cyclobutyl)amino)-N-(6-(dimethylamino)pyridazin-3-yl)-6-(methylamino)nicotinamide]
≤ 10	> 100	> 80	> 80	50 to 100	CNc1ccc(C(=O)Nc2cccc(C3CC3)n2)c(NC2CC3(C2)CN(C(=O)CCN2CCN(c4ccc(Nc5ncc6c(C)c(C(C)=O)c(=O)n(C7CCCC7)c6n5)nc4)CC2)C3)n1 [CPD-103, 2-((2-(3-(4-(6-((6-Acetyl-8-cyclopentyl-5-methyl-7-oxo-7,8-dihydropyrido[2,3-d]pyrimidin-2-yl)amino)pyridin-3-yl)piperazin-1-yl)propanoyl)-2-azaspiro[3.3]heptan-6-yl)amino)-N-(6-cyclopropylpyridin-2-yl)-6-(methylamino)nicotinamide]
≤ 10	> 100	50 to 80	50 to 80	≤ 50	CNc1ccc(C(=O)Nc2ccc(N(C)C)nn2)c(NC2CC3(C2)CN(C(=O)C2(CN4CCN(c5ccc(Nc6ncc7c(C)c(C(C)=O)c(=O)n(C8CCCC8)c7n6)nc5)CC4)CC2)C3)n1 [CPD-115, 2-((2-(1-((4-(6-((6-Acetyl-8-cyclopentyl-5-methyl-7-oxo-7,8-dihydropyrido[2,3-d]pyrimidin-2-yl)amino)pyridin-3-yl)piperazin-1-yl)methyl)cyclopropane-1-carbonyl)-2-azaspiro[3.3]heptan-6-yl)amino)-N-(6-(dimethylamino)pyridazin-3-yl)-6-(methylamino)nicotinamide]
≤ 10	> 100	50 to 80	50 to 80	50 to 100	CNc1ccc(C(=O)Nc2cc(C)n(C)n2)c(NC2CC3(C2)CN(C(=O)CCN2CCN(c4ccc(Nc5ncc6c(C)c(C(C)=O)c(=O)n(C7CCCC7)c6n5)nc4)CC2)C3)n1 [CPD-129, 2-((2-(3-(4-(6-((6-Acetyl-8-cyclopentyl-5-methyl-7-oxo-7,8-dihydropyrido[2,3-d]pyrimidin-2-yl)amino)pyridin-3-yl)piperazin-1-yl)propanoyl)-2-azaspiro[3.3]heptan-6-yl)amino)-N-(1,5-dimethyl-1H-pyrazol-3-yl)-6-(methylamino)nicotinamide]
10 to 50	< 50	30 to 50	50 to 80	≥ 100	CNc1ccc(C(=O)Nc2cn(C)c(C3CC3)n2)c(NC2CC3(CC(NC(=O)CN4CCN(c5ccc(Nc6ncc7c(C)c(C(C)=O)c(=O)n(C8CCCC8)c7n6)nc5)CC4)C3)C2)n1 (centres unmarked) [CPD-135, 2-((6-(2-(4-(6-((6-Acetyl-8-cyclopentyl-5-methyl-7-oxo-7,8-dihydropyrido[2,3-d]pyrimidin-2-yl)amino)pyridin-3-yl)piperazin-1-yl)acetamido)spiro[3.3]heptan-2-yl)amino)-N-(2-cyclopropyl-1-methyl-1H-imidazol-4-yl)-6-(methylamino)nicotinamide]
≤ 10	> 100	50 to 80	50 to 80	50 to 100	CNc1ccc(C(=O)Nc2ccc(N(C)C)nn2)c(NC2CCC(CCNC(=O)CN3CCN(c4ccc(Nc5ncc6c(C)c(C(C)=O)c(=O)n(C7CCCC7)c6n5)nc4)CC3)C2)n1 (centres unmarked) [CPD-136, 2-((3-(2-(2-(4-(6-((6-Acetyl-8-cyclopentyl-5-methyl-7-oxo-7,8-dihydropyrido[2,3-d]pyrimidin-2-yl)amino)pyridin-3-yl)piperazin-1-yl)acetamido)ethyl)cyclopentyl)amino)-N-(6-(dimethylamino)pyridazin-3-yl)-6-(methylamino)nicotinamide]
≤ 10	> 100	50 to 80	> 80	50 to 100	CNc1ccc(C(=O)Nc2cccc(C)n2)c(NC2CC3(C2)CN(C(=O)CCN2CCN(c4ccc(Nc5ncc6c(C)c(C(C)=O)c(=O)n(C7CCCC7)c6n5)nc4)CC2)C3)n1 [CPD-155, 2-((2-(3-(4-(6-((6-acetyl-8-cyclopentyl-5-methyl-7-oxo-7,8-dihydropyrido[2,3-d]pyrimidin-2-yl)amino)pyridin-3-yl)piperazin-1-yl)propanoyl)-2-azaspiro[3.3]heptan-6-yl)amino)-6-(methylamino)-N-(6-methylpyridin-2-yl)nicotinamide]

Reference: patent US20260297081A1, “COMPOUNDS AND METHODS OF TREATING CANCERS” (Cullgen Inc., priority 2023, published 2026)
